Values joined by “and” are separate entries in the source; they are usually repeats but may differ in a detail not shown here. Identical values can stand only once. ± gives the expanded uncertainty stated by the source.
Conditions: Fluid (supercritical or subcritical phases), Buoyancy - hydrostatic balance with magnetic suspension - two sinkers

CCC [propane]
Conditions | mass density
315 K, 774.95 kPa | 14.7169 ± 0.0042 kg/m3 and 14.7168 ± 0.0042 kg/m3
315 K, 774.96 kPa | 14.7169 ± 0.0042 kg/m3 and 14.7168 ± 0.0042 kg/m3
315 K, 1306.4 kPa | 27.9201 ± 0.0071 kg/m3 and 27.9221 ± 0.0071 kg/m3
315 K, 1306.5 kPa | 27.9244 ± 0.0072 kg/m3
315 K, 1306.6 kPa | 27.927 ± 0.0071 kg/m3 and 27.926 ± 0.0071 kg/m3
320 K, 270.24 kPa | 4.64 ± 0.0029 kg/m3 and 4.6399 ± 0.0029 kg/m3 and 4.6398 ± 0.0029 kg/m3
320 K, 476.69 kPa | 8.4338 ± 0.0034 kg/m3 and 8.4339 ± 0.0034 kg/m3
320 K, 789.41 kPa | 14.6898 ± 0.0041 kg/m3
320 K, 789.42 kPa | 14.69 ± 0.0041 kg/m3
320 K, 789.43 kPa | 14.6907 ± 0.0041 kg/m3 and 14.6901 ± 0.0041 kg/m3
320 K, 1333.7 kPa | 27.726 ± 0.53 kg/m3
320 K, 1333.9 kPa | 27.7763 ± 0.53 kg/m3
320 K, 1334.3 kPa | 27.7883 ± 0.53 kg/m3
320 K, 1334.6 kPa | 27.742 ± 0.53 kg/m3
320 K, 1335 kPa | 27.8035 ± 0.53 kg/m3
320 K, 2017.4 kPa | 457.1 ± 0.15 kg/m3
320 K, 2018.5 kPa | 457.104 ± 0.15 kg/m3
320 K, 2018.7 kPa | 457.105 ± 0.15 kg/m3
320 K, 2018.8 kPa | 457.104 ± 0.15 kg/m3
320 K, 2019.1 kPa | 457.105 ± 0.15 kg/m3
320 K, 2019.3 kPa | 457.11 ± 0.15 kg/m3
320 K, 2019.4 kPa | 457.108 ± 0.15 kg/m3
320 K, 2019.5 kPa | 457.11 ± 0.15 kg/m3
320 K, 2019.8 kPa | 457.109 ± 0.15 kg/m3 and 457.107 ± 0.15 kg/m3 and 457.108 ± 0.15 kg/m3
320 K, 2019.9 kPa | 457.109 ± 0.15 kg/m3
320 K, 4080.8 kPa | 466.418 ± 0.057 kg/m3
320 K, 4080.9 kPa | 466.42 ± 0.057 kg/m3
320 K, 4081 kPa | 466.419 ± 0.057 kg/m3
320 K, 4081.3 kPa | 466.42 ± 0.057 kg/m3
320 K, 4081.6 kPa | 466.42 ± 0.057 kg/m3
320 K, 8257.8 kPa | 481.065 ± 0.058 kg/m3
320 K, 8258.1 kPa | 481.068 ± 0.058 kg/m3
320 K, 8258.4 kPa | 481.067 ± 0.058 kg/m3 and 481.068 ± 0.058 kg/m3
320 K, 10347 kPa | 487.109 ± 0.059 kg/m3 and 487.106 ± 0.059 kg/m3 and 487.107 ± 0.059 kg/m3
320 K, 10348 kPa | 487.113 ± 0.059 kg/m3 and 487.107 ± 0.059 kg/m3
320 K, 10349 kPa | 487.112 ± 0.059 kg/m3
320 K, 12003 kPa | 491.44 ± 0.06 kg/m3
320 K, 12004 kPa | 491.44 ± 0.06 kg/m3 and 491.441 ± 0.06 kg/m3
320 K, 16094 kPa | 500.965 ± 0.061 kg/m3
320 K, 16095 kPa | 500.967 ± 0.061 kg/m3
320 K, 16096 kPa | 500.967 ± 0.061 kg/m3
320 K, 20063 kPa | 508.971 ± 0.062 kg/m3 and 508.967 ± 0.062 kg/m3 and 508.969 ± 0.062 kg/m3
320 K, 20064 kPa | 508.969 ± 0.062 kg/m3 and 508.971 ± 0.062 kg/m3
320 K, 24069 kPa | 516.143 ± 0.062 kg/m3
320 K, 24072 kPa | 516.146 ± 0.062 kg/m3 and 516.148 ± 0.062 kg/m3 and 516.147 ± 0.062 kg/m3
320 K, 29981 kPa | 525.489 ± 0.064 kg/m3
320 K, 29983 kPa | 525.494 ± 0.064 kg/m3
320 K, 29985 kPa | 525.495 ± 0.064 kg/m3
320 K, 29986 kPa | 525.497 ± 0.064 kg/m3
320 K, 35299 kPa | 532.943 ± 0.064 kg/m3
320 K, 35300 kPa | 532.945 ± 0.064 kg/m3 and 532.943 ± 0.064 kg/m3
320 K, 35301 kPa | 532.945 ± 0.064 kg/m3
325 K, 803.73 kPa | 14.6629 ± 0.0041 kg/m3 and 14.6627 ± 0.0041 kg/m3 and 14.6626 ± 0.0041 kg/m3
325 K, 803.74 kPa | 14.6631 ± 0.0041 kg/m3 and 14.6629 ± 0.0041 kg/m3
325 K, 1340.6 kPa | 27.0793 ± 0.032 kg/m3
325 K, 1340.9 kPa | 27.1015 ± 0.032 kg/m3
325 K, 1341.2 kPa | 27.0724 ± 0.032 kg/m3
325 K, 1341.8 kPa | 27.0948 ± 0.032 kg/m3
330 K, 278.72 kPa | 4.6293 ± 0.0029 kg/m3 [middle of 4 runs]
330 K, 492.57 kPa | 8.4128 ± 0.0033 kg/m3 and 8.4127 ± 0.0033 kg/m3
330 K, 492.58 kPa | 8.4128 ± 0.0033 kg/m3 and 8.4127 ± 0.0033 kg/m3
330 K, 817.85 kPa | 14.6343 ± 0.0041 kg/m3
330 K, 817.86 kPa | 14.6347 ± 0.0041 kg/m3 and 14.6346 ± 0.0041 kg/m3 and 14.6343 ± 0.0041 kg/m3
330 K, 817.87 kPa | 14.6348 ± 0.0041 kg/m3
330 K, 1346.8 kPa | 26.4281 ± 0.034 kg/m3
330 K, 1347 kPa | 26.4322 ± 0.034 kg/m3
330 K, 1347.2 kPa | 26.4396 ± 0.034 kg/m3
330 K, 1347.3 kPa | 26.4407 ± 0.034 kg/m3 and 26.4409 ± 0.034 kg/m3
330 K, 1714.5 kPa | 36.5728 ± 0.039 kg/m3 [middle of 5 runs]
335 K, 1765.2 kPa | 36.7322 ± 0.25 kg/m3 and 36.7333 ± 0.25 kg/m3 and 36.7309 ± 0.25 kg/m3
335 K, 1765.3 kPa | 36.7327 ± 0.25 kg/m3 and 36.733 ± 0.25 kg/m3
340 K, 287.12 kPa | 4.6188 ± 0.0029 kg/m3 and 4.6185 ± 0.0029 kg/m3
340 K, 287.13 kPa | 4.6186 ± 0.0029 kg/m3
340 K, 508.31 kPa | 8.392 ± 0.0033 kg/m3 and 8.3919 ± 0.0033 kg/m3
340 K, 508.32 kPa | 8.3921 ± 0.0033 kg/m3
340 K, 508.33 kPa | 8.3921 ± 0.0033 kg/m3
340 K, 846.05 kPa | 14.5839 ± 0.0041 kg/m3
340 K, 846.06 kPa | 14.584 ± 0.0041 kg/m3 and 14.5839 ± 0.0041 kg/m3
340 K, 846.07 kPa | 14.5839 ± 0.0041 kg/m3
340 K, 1352.2 kPa | 25.1571 ± 0.032 kg/m3
340 K, 1352.4 kPa | 25.1613 ± 0.032 kg/m3 and 25.1637 ± 0.032 kg/m3
340 K, 1352.5 kPa | 25.161 ± 0.032 kg/m3
340 K, 1352.7 kPa | 25.168 ± 0.032 kg/m3
340 K, 1816.9 kPa | 36.9173 ± 0.043 kg/m3
340 K, 1817.1 kPa | 36.9239 ± 0.043 kg/m3 and 36.9243 ± 0.043 kg/m3
340 K, 2355.2 kPa | 55.4656 ± 0.27 kg/m3
340 K, 2355.4 kPa | 55.4825 ± 0.27 kg/m3 and 55.4906 ± 0.27 kg/m3
340 K, 2355.5 kPa | 55.5083 ± 0.27 kg/m3
340 K, 2355.8 kPa | 55.4793 ± 0.27 kg/m3
340 K, 3925.4 kPa | 425.071 ± 0.072 kg/m3 and 425.069 ± 0.072 kg/m3
340 K, 3925.5 kPa | 425.072 ± 0.072 kg/m3
340 K, 3925.6 kPa | 425.073 ± 0.072 kg/m3 and 425.071 ± 0.072 kg/m3 and 425.072 ± 0.072 kg/m3
340 K, 3925.7 kPa | 425.072 ± 0.072 kg/m3 and 425.071 ± 0.072 kg/m3
340 K, 3925.8 kPa | 425.071 ± 0.072 kg/m3 and 425.072 ± 0.072 kg/m3
340 K, 8053.4 kPa | 448.649 ± 0.055 kg/m3
340 K, 8053.5 kPa | 448.65 ± 0.055 kg/m3
340 K, 8053.6 kPa | 448.651 ± 0.055 kg/m3
340 K, 8053.8 kPa | 448.649 ± 0.055 kg/m3
340 K, 8054.1 kPa | 448.649 ± 0.055 kg/m3
340 K, 12040 kPa | 464.072 ± 0.057 kg/m3 and 464.071 ± 0.057 kg/m3
340 K, 12041 kPa | 464.071 ± 0.057 kg/m3
340 K, 16069 kPa | 476.246 ± 0.058 kg/m3 and 476.247 ± 0.058 kg/m3 and 476.248 ± 0.058 kg/m3
340 K, 16070 kPa | 476.248 ± 0.058 kg/m3
340 K, 19781 kPa | 485.636 ± 0.059 kg/m3
340 K, 19783 kPa | 485.642 ± 0.059 kg/m3 and 485.644 ± 0.059 kg/m3
340 K, 19784 kPa | 485.647 ± 0.059 kg/m3 [middle of 4 runs]
340 K, 19785 kPa | 485.649 ± 0.059 kg/m3
340 K, 19943 kPa | 485.999 ± 0.059 kg/m3
340 K, 19946 kPa | 486.007 ± 0.059 kg/m3 and 486.009 ± 0.059 kg/m3 and 486.006 ± 0.059 kg/m3
340 K, 19947 kPa | 486.007 ± 0.059 kg/m3
340 K, 23981 kPa | 494.781 ± 0.06 kg/m3 and 494.78 ± 0.06 kg/m3
340 K, 23982 kPa | 494.781 ± 0.06 kg/m3
340 K, 29812 kPa | 505.708 ± 0.061 kg/m3
340 K, 29815 kPa | 505.714 ± 0.061 kg/m3
340 K, 29816 kPa | 505.715 ± 0.061 kg/m3 and 505.712 ± 0.061 kg/m3
340 K, 29817 kPa | 505.713 ± 0.061 kg/m3
